According to patent publication US10160785B2, “Antimicrobial peptides and their use for the treatment of topical infections” (priority 2015, dated 2018):
Where a SMILES comes first, the peptide text is derived from it.

What was measured:
[1] = in vitro; conditions: human
Method: The peptides in the concentrations 2-200 μmol.l^−1 were incubated with the suspension of human red blood cells (5% v/v) for 1 h at 37° C. in a physiological solution at a final volume of 0.2 ml. The samples were then centrifuged for 5 min at 250 g, and the absorbance of the supernatant was determined at 540 nm. Supernatants of red blood cells suspended in physiological solution and in 0.2% (v/v) TRITON X100 in physiological solution served as controls for zero hemolysis (blank) and 100% hemolysis, respectively. Hemolytic activity is expressed as the peptide concentration required for lysis of 50% of human erythrocytes in the assay (LC50).

[2] = system: Candida albicans (Olomouc) biofilm; assay: C. albicans biofilm, remaining metabolic activity (XTT); format: cell-based
Method: Candida albicans (Olomouc) was sub-cultured overnight in YPD medium (10 g yeast extract (DIFCO, USA), 20 g peptone (OXOID), 20 g glucose (Penta) dissolved in 1 L of distilled water) at constant shaking (100 RPM) at 37° C. Next day, the overnight culture was diluted 1:100 into fresh YPD medium and incubated at constant shaking (200 RPM) at 37° C. until the mid-exponential growth phase was reached. Then the cells were harvested and washed twice by centrifugation in physiological solution (5000 RPM; 5 min). Cells were suspended in sterile salt solution and their optical density was determined at 600 nm.
A final yeast suspension was prepared at a cell density of 1×10^6 CFU (corresponding to optical density of 0.17 at 600 nm) in RPMI 1640 medium with L-glutamine (BioSera), NaHCO3 (2 g/l; Penta) and 0.165 mol.l^−1 MOPS (Duchefa)—further as RPMI broth medium 1.
Biofilms were formed on commercially available sterile, polystyrene, flat-bottomed, 96-well microtiter plates (TPP, SW). Cell suspension (100 μl) was pipetted into selected wells of a microtiter plate and incubated without shaking for 2 hours at 37° C. Afterwards, the wells were washed twice with sterile PBS buffer (1.44 g Na2HPO4, 0.24 g KH2PO4, 0.2 g KCl and 8 g NaCl in 1 l distilled water, pH=7; Penta). Fresh RPMI broth medium 1 (100 μl) was added to each well and the plate was sealed with parafilm and incubated without shaking for 48 hours at 37° C.
Planktonic and non-adherent cells were removed by threefold washing of the biofilm with sterile PBS buffer (200 μl). A twofold serial dilution was used to reach required peptide concentration (in RPMI broth medium 1) in each well. Peptide concentrations range was between 0.39-200 μmol.l^−1. Plates were then sealed with parafilm and incubated for 20 hours at 37° C.
The metabolic activity of surviving Candida cells in the treated biofilm was determined by staining with XTT (2,3-Bis(2-methoxy-4-nitro-5-sulphophenyl)-2H-tetrazolium-5-carboxanilide). Stock solution of PMS (phenazine methosulfate; 7.5 g/l; SIGMA, Czech Republic) stored at −20° C. was diluted in PBS buffer 1:100. Diluted PMS was further mixed (2:25) with stock solution of XTT (0.5 g/l; Alchimica, Slovakia) dissolved in PBS/RPMI broth medium (1:1). Mixture (100 μl) of PMS and XTT was added into treated biofilm in the wells and incubated for 90 min at 37° C. Then the intensity of staining in each well was measured as absorbance at 540 nm on a Tecan Infinite M200 Pro reader (Tecan GmbH, Austria). Remaining metabolic activity of the cells in the biofilm was expressed for each well in percentage and calculated as follows:
[formula] where A is the absorbance of tested compound, ABL is the absorbance of negative control and AC is the absorbance of control untreated biofilm. The non-inoculated wells served as negative control. Inoculated wells not treated with compound served as positive control. Amphotericin B was used as control drug to ensure quality of Candida albicans. The values of remaining metabolic activity of treated biofilms are shown at Table 5.

[3] = system: S. aureus (Liberec) biofilm; assay: Bacterial biofilm, remaining metabolic activity (MTT); format: cell-based, Staphylococcus aureus; conditions: remaining metabolic activity of biofilm, 20 h
Method: (§1) Inoculum of S. aureus (Liberec) or P. aeruginosa (Liberec) cultivated overnight in BHI medium was diluted with fresh BHI medium containing 1% glucose to a final concentration to be ca. 10^8 CFU/ml. Then this was pipetted (100 μl) to 96-multiwell polystyrene plate which was incubated at 37° C. under rotary shaking (300 RPM) for 24 h. Medium without bacteria in the wells was used as a negative control. Supernatant from each well was drained and the biofilm formed on the bottom and on the walls of the wells was cautiously washed three times by sterile physiological solution (300 μl). The peptides tested in the concentrations of 1-128 μmol.l^−1 were prepared by twofold serial dilution of their stock solution (1 mmol.l^−1) in fresh BHI medium and then pipetted (100 μl) to the wells with formed biofilms. The biofilms covered by BHI medium without peptide were used as a positive control. The plates were then incubated for 20 h as described above. After that the liquid was drained out and wells were washed twice with sterile physiological solution.
(§2) The metabolic activity of surviving bacterial cells in the biofilm was determined by staining with MTT (3-(4,5-dimethylthiazol-2-yl)-2,5-diphenyl-2H-tetrazolium bromide) as follows: The mixture of BHI medium (100 μl) and 10 μl of the stock solution of MTT (5 mg/ml in physiological solution) was added to each well and the plate was incubated 40 min at 37° C. The liquid was drained out and the insoluble formazan crystals formed by reduction inside the biofilm were dissolved with dimethyl sulphoxide (100 μl). The intensity of staining in each well was measured as absorbance at 540 nm on a Tecan Infinite M200 Pro reader (Tecan GmbH, Austria). Remaining activity of surviving cells inside the biofilm was expressed for each well in percentage according to the following equation:
(§3) [formula] where A is the absorbance of the tested compound, ABL is the absorbance of the negative control, and AC is the absorbance of control biofilm.

[4] = system: P. aeruginosa (Liberec) biofilm; assay: as above; format: cell-based, Pseudomonas aeruginosa; conditions: remaining metabolic activity of biofilm, 20 h
Method: as §1, §2, §3

[5] = peptide concentration 6.25 μmol · l^−1, 20 hours
[6] = peptide concentration 12.5 μmol · l^−1, 20 hours
[7] = peptide concentration 25 μmol · l^−1, 20 hours
[8] = peptide concentration 50 μmol · l^−1, 20 hours
[9] = peptide concentration 100 μmol · l^−1, 20 hours
[10] = peptide concentration 200 μmol · l^−1, 20 hours
[11] = peptide concentration 8 μmol · l^−1
[12] = peptide concentration 16 μmol · l^−1
[13] = peptide concentration 32 μmol · l^−1
[14] = peptide concentration 64 μmol · l^−1
[15] = peptide concentration 128 μmol · l^−1

| Molecule | HC50 at 1 h [1] [µM] | Metabolic activity of C. albicans (%) [2, 5] [%] | Metabolic activity of C. albicans (%) [2, 6] [%] | Metabolic activity of C. albicans (%) [2, 7] [%] | Metabolic activity of C. albicans (%) [2, 8] [%] | Metabolic activity of C. albicans (%) [2, 9] [%] | Metabolic activity of C. albicans (%) [2, 10] [%] | Metabolic activity (%) S. aureus (Liberec) [3, 11] [%] | Metabolic activity (%) S. aureus (Liberec) [3, 12] [%] | Metabolic activity (%) S. aureus (Liberec) [3, 13] [%] | Metabolic activity (%) S. aureus (Liberec) [3, 14] [%] | Metabolic activity (%) S. aureus (Liberec) [3, 15] [%] | CC50 at 1 h [1] [µM] | Metabolic activity (%) P. aeruginosa (Liberec) [4, 11] [%] | Metabolic activity (%) P. aeruginosa (Liberec) [4, 12] [%] | Metabolic activity (%) P. aeruginosa (Liberec) [4, 13] [%] | Metabolic activity (%) P. aeruginosa (Liberec) [4, 14] [%] | Metabolic activity (%) P. aeruginosa (Liberec) [4, 15] [%] |
| --- | --- | --- | --- | --- | --- | --- | --- | --- | --- | --- | --- | --- | --- | --- | --- | --- | --- | --- |
| H-GIMSSLMKKLAAHIKK-NH2 [VIII] | > 400 |  |  |  |  |  |  |  |  |  |  |  |  |  |  |  |  |  |
| H-GIMSSLMKKLAAIIKK-NH2 [IX] |  | 93.2 | 54.3 | 2.3 | 1.5 | 1.3 | 0.8 | 79.1 | 53.6 | 54.0 | 30.5 | 23.6 | > 400 | 73.6 | 76.8 | 85.3 | 83.8 | 34.2 |
| NCC[C@H](O)C(=O)N[C@@H]1C[C@H](N)[C@@H](O[C@H]2O[C@H](CN)[C@@H](O)[C@H](O)[C@H]2O)[C@H](O)[C@H]1O[C@H]1O[C@H](CO)[C@@H](O)[C@H](N)[C@H]1O [Amikacin, reference compound] |  |  |  |  |  |  |  | 95.4 | 102.4 | 108.7 | 82.4 | 104.0 |  | 80.0 | 62.9 | 40.4 | 20.3 | 11.8 |
| H-GILSSLWKKLKKIIAK-NH2 [XII] |  | 86.8 | 80.3 | 94.8 | 63.6 | 6.2 | 3.2 | 52.2 | 31.5 | 18.9 | 14.7 | 1.0 | 197 | 77.3 | 69.3 | 66.9 | 44.4 | 57.9 |
| CN[C@H](CC(C)C)C(=O)N[C@H]1C(=O)N[C@@H](CC(N)=O)C(=O)N[C@H]2C(=O)N[C@H]3C(=O)N[C@H](C(=O)N[C@H](C(=O)O)c4cc(O)cc(O)c4-c4cc3ccc4O)[C@H](O)c3ccc(c(Cl)c3)Oc3cc2cc(c3O[C@@H]2O[C@H](CO)[C@@H](O)[C@H](O)[C@H]2O[C@H]2C[C@](C)(N)[C@H](O)[C@H](C)O2)Oc2ccc(cc2Cl)[C@H]1O [Vancomycin, reference compound] |  |  |  |  |  |  |  | 52.8 | 15.9 | 9.7 | 8.5 | 6.3 |  |  |  |  |  |  |
| CC[C@@H](C)[C@@H](NC(=O)CN)C(=O)N[C@H](CC(C)C)C(=O)N[C@H](CO)C(=O)N[C@H](CO)C(=O)N[C@H](CC(C)C)C(=O)N[C@H](Cc1c[nH]c2ccccc12)C(=O)N[C@H](CCCCN)C(=O)N[C@H](CCCCN)C(=O)N[C@H](CC(C)C)C(=O)N[C@H](CCCCN)C(=O)N[C@H](CCCCN)C(=O)N[C@@H](C(=O)N[C@@H](C(=O)N[C@H](C)C(=O)N[C@H](CCCCN)C(N)=O)[C@H](C)CC)[C@H](C)CC [XIII] (HELM PEPTIDE1{G.[dI].[dL].[dS].[dS].[dL].[dW].[dK].[dK].[dL].[dK].[dK].[dI].[dI].[dA].[dK].[am]}$$$$V2.0) |  | 78.3 | 56.9 | 37.2 | 10.9 | 5.8 | 4.9 | 71.6 | 33.8 | 21.5 | 20.4 | 5.3 | 191 | 71.2 | 65.8 | 61.2 | 73.6 | 23.0 |
| H-GILSSLLKKLKKIIAK-NH2 [III] |  | 104.7 | 113.6 | 87.2 | 31.1 | 28.4 | 0.0 | 87.8 | 89.6 | 78.4 | 15.9 | 2.4 | 284 |  |  |  |  |  |
